For this assay, the system named is HIV-1 (NL4-3 strain). In words: Assay for Inhibition of HIV Replication (kinetic assay, MT4-gag-GFP reporter cell line; VIKING). In kind it is cell-based. An outline of the steps: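 MT4-gag-GFP cells infected with HIV-1 NL4-3 at low MOI for 24 h were seeded with compound (0.4% DMSO) in medium with 0%, 10% or 100% normal human serum. GFP-positive cells were counted at 24 and 48 h, and R0 was the 48 h/24 h ratio. Inhibition was scaled to DMSO and triple-drug controls, and IC50 came from 4-parameter fits.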

Where [1] appears, read: Human immunodeficiency virus 1, NL43, MT4-GFP cells infected with HIV-1 NL4-3, 0% normal human serum (NHS), read-out: VIKING IP50 (nM) with 0% NHS.
[2] abbreviates: Human immunodeficiency virus 1, NL43, MT4-GFP cells infected with HIV-1 NL4-3, 100% normal human serum (NHS), read-out: VIKING IP50 (nM) with 100% NHS.
[3] abbreviates: MT4-GFP cells infected with HIV-1 NL4-3, 0% normal human serum (NHS), read-out: VIKING IP50 (nM) with 0% NHS.
[4] abbreviates: MT4-GFP cells infected with HIV-1 NL4-3, 100% normal human serum (NHS), read-out: VIKING IP50 (nM) with 100% NHS.

Where two headings read alike, the source gives them in different places.

`C[C@@H]1CN2C(=O)c3c(O)c(=O)c(C(=O)NCc4cccc(Cl)c4F)c4n3C(CC4)C2O1` (stereo partly shown) [Compound 38]: the IC50 worked out at 0.543 nM under setting [1] and 46.4 nM under setting [2].

`CCNC1CC2C3OCCCN3C(=O)c3c(O)c(=O)c(C(=O)NCc4cccc(Cl)c4F)c1n32` (stereo not shown) [Compound 194]: the IC50 reads like this: under setting [3], 15.7 nM; under setting [4], 35.1 nM.

Take `C[C@@H]1COC2C3CCc4c(C(=O)NCc5ccc(F)cc5F)c(=O)c(O)c(n43)C(=O)N21` (single isomer, unassigned) [Compound 33]: the IC50 reads like this: under setting [1], 0.543 nM; under setting [2], 1940 nM.

On to `C[C@H]1CN2C(=O)c3c(O)c(=O)c(C(=O)NCc4cccc(Cl)c4F)c4n3C(CC4)C2N1C` (stereo partly shown) [Compound 103], for which the IC50 reads like this: under setting [3], 1.45 nM; under setting [4], 15.4 nM.

As for `CN1CCCN2C(=O)c3c(O)c(=O)c(C(=O)NCc4cccc(Cl)c4F)c4n3C(CC4)C12` (single isomer, unassigned) [Compound 85], the IC50 runs as follows: under setting [3], 0.703 nM; under setting [4], 17.8 nM.

For the compound `O=C(NCc1c(F)cc(F)cc1F)c1c2n3c(c(O)c1=O)C(=O)N1CCOC1C3CC2` (single isomer, unassigned) [Compound 19], the IC50 is, setting by setting: under setting [3], 0.539 nM; under setting [4], 1230 nM.

Turning to `CN1CCCN2C(=O)c3c(O)c(=O)c(C(=O)NCc4cccc(Cl)c4F)c4n3C(CC4)C12` (single isomer, unassigned) [Compound 87], the IC50 under setting [3] came out at 0.875 nM and the IC50 under setting [4] came to 1000 nM.

Take `COC1CC2C3N(C)CCN3C(=O)c3c(O)c(=O)c(C(=O)NCc4ccc(F)cc4F)c1n32` (stereo not shown) [Compound 126]: the IC50 under setting [3] came to 2.42 nM and the IC50 under setting [4] stood at 211 nM.

On to `CCNC1CC2C3OCCCN3C(=O)c3c(O)c(=O)c(C(=O)NCc4cccc(Cl)c4F)c1n32` (stereo not shown) [Compound 197], for which the IC50 under setting [3] is 14 nM and the IC50 under setting [4] is 15100 nM.

With `O=C(NCc1ccc(F)c(Cl)c1)c1c2n3c(c(O)c1=O)C(=O)N1CCOC1C3CC2` (single isomer, unassigned) [Compound 22], the IC50 worked out at 0.895 nM under setting [1] and 503 nM under setting [4].

For `C[C@H]1CN2C(=O)c3c(O)c(=O)c(C(=O)NCc4cccc(Cl)c4F)c4n3C(CC4)C2N1C` (stereo partly shown) [Compound 102], the IC50 is, setting by setting: under setting [1], 1.05 nM; under setting [2], 579 nM.

Take `O=C(NCc1ccc(F)cc1)c1c2n3c(c(O)c1=O)C(=O)N1C4CCC(C4)OC1C3CC2` (stereo not shown) [Compound 161]: the IC50 is, setting by setting: under setting [3], 2.67 nM; under setting [4], 5510 nM.

Regarding `O=C(NCc1ccc(F)cc1F)c1c2n3c(c(O)c1=O)C(=O)N1CCOC1C3CC2` (single isomer, unassigned) [Compound 7], the IC50 under setting [3] turned out to be 2.15 nM and the IC50 under setting [4] was 1410 nM.

`CC(=O)N1C[C@H](C)N2C(=O)c3c(O)c(=O)c(C(=O)NCc4cccc(Cl)c4F)c4n3C(CC4)C12` (stereo partly shown) [Compound 121]: the IC50 under setting [1] was found to be 1.45 nM and the IC50 under setting [2] amounted to 308 nM.

On to `CCNC1CC2C3OCCCN3C(=O)c3c(O)c(=O)c(C(=O)NCc4c(F)cc(F)cc4F)c1n32` (stereo not shown) [Compound 182], for which the IC50 worked out at 6.63 nM under setting [3] and 44.9 nM under setting [4].

`CCNC1CC2C3OCCCN3C(=O)c3c(O)c(=O)c(C(=O)NCc4cccc(F)c4F)c1n32` (stereo not shown) [Compound 190]: the IC50 stood at 5.26 nM under setting [3] and 66.4 nM under setting [4].

Regarding `O=C(NCc1c(F)cc(F)cc1F)c1c2n3c(c(O)c1=O)C(=O)N1C4CCC(C4)OC1C3CC2` (stereo not shown) [Compound 171], the IC50 runs as follows: under setting [3], 2.82 nM; under setting [4], 74.6 nM.
